≈ marks a conversion by molar mass, not a printed value.
How the values were obtained:
[1] = system: Klebsiella pneumoniae (CRE, ATCC BAA-1705); test: MIC against CRE; type: cell-based; conditions: Klebsiella pneumoniae, ATCCBAA1705
Procedure: TABLE 27 details the individual MIC values of compounds 1, 7, 8, 9, 10, 11, PMB, PME, and light against CRE.
The MICs of PME and compounds 8-11 were determined against Klebsiella pneumoniae (CRE, ATCC BAA-1705). […] After the incubation with PME, the compounds were added at a concentration of 20 μM, and the samples were further incubated. At specific time points, the samples were taken and diluted ten-fold in media. Ten microliters of each dilution was then drip-streaked onto an agar plate and incubated overnight at 37° C. Colony counts were then performed and the CFU/mL were calculated.

P. aeruginosa = test: Cell killing with compounds and PME at fixed concentrations, with and without white light; type: cell-based; conditions: for Co-treatment with PME: log reduction in the CFU/mL compared to PME alone: 20 μM compound and 0.1 μg/mL PME
Procedure: FIG. 26 is an example of the treatment of P. aeruginosa with compound 1 and PME at fixed concentrations.
P. aeruginosa cells were also treated with white light upon being incubated with compound 1 for different durations of time. In a 12×75 mm borosilicate glass culture tube, 1 mL of cell suspension was added. PME was added to the cells, and the samples were mixed using a vortex mixer. The resulting samples were incubated for 1.5 hours at 37° C. on a rotary shaking incubator at 100 rpm. Compound 1 was then added, and the samples were incubated for 30 minutes at 37° C. on a rotary shaking incubator at 100 rpm. The samples were then irradiated with white light using a Lumacare™ LC-122 for 2 minutes (irradiation λ1) and incubated overnight at 37° C. The samples were irradiated again with white light using a Lumacare™ LC-122 for 2 minutes (irradiation λ2). Ten-fold dilutions were made of each sample, and 10 μL of each dilution was drip-streaked onto an agar plate. The samples were incubated overnight at 37° C., and colony counts were performed to calculate CFU/mL.
FIG. 55 is an illustrative example of the treatment of P. aeruginosa with compound 1, PME, co-treatment with compound 1 and PME, and co-treatment with compound 1, PME, and light (λ1 and λ2) at fixed concentrations.

S. aureus (ATCC 29213) = test: MIC against drug sensitive S. aureus; type: cell-based; conditions: Staphylococcus aureus, ATCC29213; ATCC 29213; read-out: S. aureus MIC
HeLa cells = test: Toxicity (IC50) on HeLa cells; type: cell-based, human; conditions: for IC50: Homo sapiens, cancerous cervical epithelium HeLa cells; for toxicity to HeLa versus normal WI38 cells: comparison of TABLE 2 values
Procedure: The toxicities of the compounds of the invention were determined for human cancerous cervical epithelium HeLa and normal lung fibroblast WI38 cells. The toxicities of EPIs INF-55 and INF-55Cl were quantified as controls. […] TABLE 2 compares the toxicity of compounds 7-11 on HeLa cells and normal WI38 cells.

drug-resistant bacteria = test: Summary of synergistic activities with antibiotic families (TABLE 45); type: cell-based; conditions: for Synergy with Oxacillin (β-lactama): *indicated ampicillin, dicloxicillin and Penicillin G
Source text: TABLE 45 summarizes the synergistic activities of the seven classes of clinically used antibiotics and compounds of the invention against a variety of different drug-resistant bacteria.

CRE = test: Resensitization to antibiotics (log reduction, TABLE 29); type: cell-based
Procedure: (§1) In a 96-well microtiter plate, two-fold dilutions were made of each drug (starting with 100 μM) in 100 μL of a cell suspension in TSB. The resulting samples were incubated overnight at 37° C. on a rotary shaking incubator at 100 rpm. The samples were then visually inspected for turbidity. A 20% well volume of MTT reagent (5 mg/mL) was subsequently added, and the samples were incubated for about 20 minutes.

VRE = test: as above; type: cell-based, Enterococcus faecalis
Procedure: as §1

[2] = compound 20 μM, PMB (0.2 μg/mL)
[3] = compound 20 μM, PME (0.2 μg/mL)

SMILES	MIC [1]	Co-treatment with PME: log reduction in the CFU/mL compared to PME alone (P. aeruginosa)	MIC (S. aureus (ATCC 29213))	IC50 (HeLa cells)	Synergy with Polymyxin B (Polypeptides) (drug-resistant bacteria; A. baumannii ATCC 15151)	Synergy with Polymyxin E (Polypeptides) (drug-resistant bacteria; A. baumannii ATCC 15151)	Synergy with Polymyxin B (Polypeptides) (drug-resistant bacteria; CRE ATCC 1705)	Synergy with Polymyxin E (Polypeptides) (drug-resistant bacteria; CRE ATCC 1705)	Synergy with Polymyxin B (Polypeptides) (drug-resistant bacteria; CRE ATCC 2340)	Synergy with Polymyxin E (Polypeptides) (drug-resistant bacteria; CRE ATCC 2340)	Synergy with Polymyxin B (Polypeptides) (drug-resistant bacteria; CRE ATCC 2341)	Synergy with Polymyxin E (Polypeptides) (drug-resistant bacteria; CRE ATCC 2341)	Synergy with Polymyxin B (Polypeptides) (drug-resistant bacteria; CRE ATCC 2342)	Synergy with Polymyxin E (Polypeptides) (drug-resistant bacteria; CRE ATCC 2342)	Synergy with Norfioxacin (Fluoroquinolones) (drug-resistant bacteria; MRSA ATCC BAA-44)	Synergy with Oxacillin (β-lactama) (drug-resistant bacteria; MRSA ATCC BAA-44)	Synergy with Polymyxin B (Polypeptides) (drug-resistant bacteria; P. aeruginosa ATCC 27853)	Synergy with Polymyxin E (Polypeptides) (drug-resistant bacteria; P. aeruginosa ATCC 27853)	Synergy with Norfioxacin (Fluoroquinolones) (drug-resistant bacteria; VRE ATCC 51299)	Synergy with Tetracycline (Tetracyclines) (drug-resistant bacteria; VRE ATCC 51299)	also measured
Clc1ccc(/C=C/c2[nH]c3ccccc3c2/C=C/c2ccc(Cl)cc2)cc1 [Compound 1]	> 100 µM	2-log reduction	100 µM (≈ 39 µg/mL)	68.9 ± 4.8 µM	–	–	–	–	–	–	–	–	–	–	–	–	–	–	–	–	Co-treatment with PME: log reduction in the CFU/mL compared to PME alone (P. aeruginosa; listed as compound 1): ~2 log reduction; reduction in the CFU/mL compared to co-treatment with compound 1 and PME (P. aeruginosa; additional irradiation after an overnight incubation (λ2), FIG. 55): negligible reduction; log reduction in the CFU/mL compared to co-treatment with compound 1 and PME (P. aeruginosa; light immediately after a 30 minute incubation with compound 1 (λ1), FIG. 55): ~8 log; PDT (P. aeruginosa; with white light, TABLE 19): ~7-log reduction; Synergy with Erythromycin (Macrolides) (drug-resistant bacteria; MRSA ATCC BAA-44): Synergy (1); Synergy with Tetracycline (Tetracyclines) (drug-resistant bacteria; MRSA ATCC BAA-44, †includes doxycycline): Synergy† (1); Log Reduction (CRE; compound 5 μM, PMB (0.2 μg/mL) + Light (2 min)): 3; Log Reduction (CRE; compound 10 μM, PME (0.1 μg/mL)): 9; Log Reduction (CRE; compound 10 μM, PME (0.2 μg/mL) + Light (2 min)): 9
Brc1ccc(/N=N/c2c[nH]c3ccccc23)cc1 [Compound 8]	> 100 µM	4-log reduction	8 µM (≈ 2.4 µg/mL)	31.6 µM	Synergy	Synergy	Synergy	Synergy	Synergy	Synergy	Synergy	Synergy	Synergy	Synergy	Synergy	Synergy*	Synergy	Synergy	Synergy	Synergy	Co-treatment with PME: log reduction in the CFU/mL compared to PME alone (P. aeruginosa; listed as compound 8): ~4 log reduction; Log Reduction (VRE; compound 7.5 μM, Norfloxacin ([…])): 4-5; Synergy with Vancomycin (Glycopeptides) (drug-resistant bacteria; VRE ATCC 51299): Synergy; Log Reduction (CRE; [2]): 6; Log Reduction (CRE; [3]): 6
Clc1ccc(/N=N/c2c[nH]c3ccccc23)cc1 [Compound 9]	> 100 µM	2-log reduction	16 µM (≈ 4.09 µg/mL)	34.4 µM	Synergy	Synergy	Synergy	Synergy	Synergy	Synergy	Synergy	Synergy	Synergy	Synergy	Synergy	Synergy*	Synergy	Synergy	Synergy	Synergy	Co-treatment with PME: log reduction in the CFU/mL compared to PME alone (P. aeruginosa; listed as compound 9): ~2 log reduction; Log Reduction (VRE; compound 75 μM, Norfloxacin ([…])): 4; Log Reduction (VRE; compound 75 μM, Tetracycline (1.5 μg/mL)): 3-4; toxicity to HeLa versus normal WI38 cells (HeLa cells): killed cancerous HeLa cells at concentrations that were not toxic to normal WI38 cells; Synergy with Vancomycin (Glycopeptides) (drug-resistant bacteria; VRE ATCC 51299): Synergy; Log Reduction (CRE; [2]): 6; Log Reduction (CRE; [3]): 6
Clc1ccc(Oc2c(-c3ccc(Cl)cc3)[nH]c3ccccc23)cc1 [Compound 10]	> 100 µM	2-log reduction	32 to 64 µM (≈ 11.3 to 22.7 µg/mL)	36.8 µM	Synergy	Synergy	Synergy	Synergy	Synergy	Synergy	Synergy	Synergy	Synergy	Synergy	Synergy	Synergy*	Synergy	Synergy	Synergy	Synergy	Co-treatment with PME: log reduction in the CFU/mL compared to PME alone (P. aeruginosa; listed as compound 10): ~2 log reduction; Log Reduction (VRE; compound 2 μM, Tetracycline (1 μg/mL)): 3-4; Log Reduction (VRE; compound […], Vancomycin (3.5 μg/mL)): 4; toxicity to HeLa versus normal WI38 cells (HeLa cells): killed cancerous HeLa cells at concentrations that were not toxic to normal WI38 cells; Synergy with Vancomycin (Glycopeptides) (drug-resistant bacteria; VRE ATCC 51299): Synergy; Synergy with β-lactama (Oxacillin column; cell says dicloxicillin) (drug-resistant bacteria; VRE ATCC 51299, dicloxicillin): Synergy; Log Reduction (CRE; [3]): 6
Clc1ccc(Oc2c(-c3ccc(Cl)cc3)[nH]c3ccc(Cl)cc23)cc1 [Compound 11]	> 100 µM	2-log reduction	32 to 64 µM (≈ 12.4 to 24.9 µg/mL)	25.9 µM	Synergy	Synergy	Synergy	Synergy	Synergy	Synergy	Synergy	Synergy	Synergy	Synergy	Synergy	Synergy*	Synergy	Synergy	Synergy	Synergy	Co-treatment with PME: log reduction in the CFU/mL compared to PME alone (P. aeruginosa; listed as compound 11): about 2 log reduction; Log Reduction (VRE; compound 0.5 μM, Norfloxacin ([…])): 3-4; Log Reduction (VRE; compound 0.5 μM, Tetracycline (1.5 μg/mL)): 3; Log Reduction (VRE; compound 0.5 μM, Vancomycin (3.5 μg/mL)): 3; Synergy with Vancomycin (Glycopeptides) (drug-resistant bacteria; VRE ATCC 51299): Synergy; Log Reduction (CRE; [3]): 6

From patent publication US9834514B2, “Antibiotic sensitivity-restoring and photosensitive agents” (New Mexico Tech Research Foundation, priority 2015, dated 2017)
